Laboratory results: patent US11925632B2, “Isoquinoline derivatives for use in treating GLUT1 deficiency syndrome” (GLIAPHARM SA, priority 2019, dated 2024)
Entries after “also recorded” stand apart in the source; their conditions may differ.

How the values were obtained:
[1] = test system: astrocytes transfected with scramble siRNA; assay: Lactate secretion, scramble siRNA astrocytes; type: cell-based, mouse; conditions: vs vehicle
Experimental: (§1) Secretion of L-lactate was measured in the extracellular medium of 96-well plated astrocytes after 90 min stimulation (at 37° C., in 5% CO2/95% air conditions) with Vehicle (DMSO), the compounds of the invention (100 nM to 100 μM) or positive control. […] Stimulation medium was composed of D5030 medium complemented with 5 mM D-glucose and 44 mM sodium bicarbonate, pH 7.2. To quantify lactate concentrations in the extracellular medium, 200 μl of a 0.2M Glycine-semicarbazide buffer (pH 10) containing 3 mM NAD and 14 U/ml LDH was added to each well of a 96-well plate containing 30 μl aliquots of extracellular medium. Samples were incubated at 37° C. for 1 h. Fluorescence intensity (340 nm excitation/450 nm emission), which represents the amount of NADH produced, was measured, and lactate concentration values were determined relative to a standard curve of L-lactate concentrations.
(§2) Scramble and GLUT1 siRNA sequences were as following:
(§3) Cells were grown in transfection medium for 3 days at 37° C. in a humidified atmosphere containing 5% CO2/95% air. After 3 days, transfection medium was replaced with DMEM D5030 supplemented with 44 mM NaHCO3 and 5 mM D-Glucose (1 ml per well).
(§4) Lactate secretion after treatment with Veh or compound of the invention (1) was measured in astrocytes transfected with scramble siRNA or GLUT1 siRNA (FIG. 4B).

[2] = test system: astrocytes transfected with GLUT1 siRNA; assay: Lactate secretion, GLUT1 siRNA astrocytes (cellular model of GLUT1-DS); type: cell-based, mouse; conditions: vs vehicle
Experimental: as §1, §2, §3, §4

C57Bl/6J wild-type mice = assay: In vivo pharmacodynamics, lactate biosensors (cerebral extracellular lactate); set-up: species or system mouse; conditions: 3 h recording, AUC ratio vs vehicle
Experimental: For pharmacodynamics (FIG. 5) and cognition (FIG. 7) experiments, adult male C57Bl/6J wild-type mice weighting 18-28 g (8 weeks of age) were used (Charles River). For ALS mouse models (FIG. 6), G93A SOD1 transgenic male and female mice on B6.SJL1-Gur/J background were used (Jackson Laboratory).
Animals were housed in groups of 3-5 in polypropylene cages (30×40×15 cm) with wire mesh top in a temperature (22±2° C.) and humidity (55±15%) controlled environment on a 12 hour light cycle (07.00-19.00 h lights on), except after surgeries when animal were housed individually. […]
Cerebral extracellular levels of lactate were monitored in vivo using lactate biosensors (Pinnacle Technology), according to the manufacturer's instructions. […] After surgery, mice were monitored closely and received analgesic treatment for at least 4 days. […] Concentrations of cerebral extracellular lactate were calculated from lactate probe electric signals using post-calibration values. […] Area Under the Curve (AUC) of lactate concentration curves were calculated using Graphpad Prism and the ratio of AUC after drug over Vehicle administration was calculated. Extracellular concentrations of L-lactate were measured in real time in freely moving animals for 3 hours after administration of Vehicle or Compound (1) (FIG. 5).

wild-type (WT) mice = assay: Cerebral extracellular lactate and glucose biosensors, wild-type littermates; type: in vivo, mouse; conditions: medial prefrontal cortex, 10 mg/kg and/or 100 mg/kg oral, AUC ratio vs vehicle
Excerpt: (§5) Transgenic mice on 129/SvJ genetic background in which GLUT1 has been knocked-down (GLUT1-DS mice) were used (Wang et al., […], Human Molecular Genetics, 15(7)). Mating colonies were composed of wild-type female mice and GLUT1-DS male mice, or GLUT1-DS female mice and wild-type male mice. F1 pups were genotyped after ear punching at weaning using PCR to determine genotype. Mice of 2 to 3 months of age were used.
Cerebral extracellular levels of lactate and glucose were monitored in vivo in GLUT1-DS transgenic male mice and wild-type (WT) male littermates using lactate and glucose biosensors (Pinnacle Technology), according to the manufacturer's instructions. […] After surgery, mice were monitored closely and received analgesic treatment for at least 4 days. After mice had fully recovered from surgery, compounds of the invention of vehicle were administered per os as previously described and cerebral levels of extracellular lactate or glucose were dynamically recorded for 6 hours using lactate or glucose biosensors, respectively. […] Concentration of cerebral extracellular lactate or glucose was calculated from lactate or glucose probe electric signals, respectively, using post-calibration values, as described by manufacturer. […]

GLUT1-DS mice = assay: Rotarod motor function in GLUT1-DS transgenic mice; type: in vivo, mouse; conditions: 10 mg/kg oral daily for 19 days
Experimental: as §5
Motor function was measured in wild-type (WT) and GLUT1-DS transgenic mice in the rotarod after 19-day long treatment with Veh. or Compound (1). Mice were administered every day orally vehicle or Compound (1) at a dose of 10 mg/kg. After 14 days of treatment, mice were exposed to rotarod training, which consisted in placing the mouse on an accelerating rotarod (4 to 40 r.p.m.) during 300 seconds. Mice that felt down before training ended, or at the end of training (300 seconds), were removed and put back to their cages. Training took place over 4 consecutive days, and on each training day mice performed 3 consecutive trials with 15 min inter-trial duration. One day after the last training (on the fifth day), mice were tested on the rotarod. Testing consisted in placing mice on the rotarod at a constant speed of 25 r.p.m. Latencies of mice before falling down were recorded.

In the case of `COc1cc2ccnc(Nc3ccc(OC(F)(F)F)cc3)c2cc1OC` [Example 1, 6,7-dimethoxy-N-(4-(trifluoromethoxy)phenyl)isoquinolin-1-amine], the Lactate secretion [1] is reported as “significantly enhances lactate secretion”, the Lactate secretion [2] is reported as “restored; also recorded: significantly enhances lactate secretion” and the “Extracellular lactate levels in the brain” value (“Extracellular lactate levels” below) (C57Bl/6J wild-type mice; 10 mg/kg per os) is reported as “significantly increases extracellular lactate levels”. For the same molecule, the “Extracellular lactate levels” value (C57Bl/6J wild-type mice; 100 mg/kg per os) was “significantly increases extracellular lactate levels”, the “Extracellular glucose levels in the brain” value (wild-type (WT) mice) was “significantly increases” and the “Extracellular lactate levels” value (wild-type (WT) mice) was “significantly increases”. For the same molecule, the “Rotarod performance (latency before falling, 25 r.p.m.)” value (GLUT1-DS mice) was “increased rotarod performance”.
